Assay results reported in patent US10683286B2, “Furazan-3-carboxylic acid derivatives and use thereof in treatment of cancer” (FREIE UNIVERSITAET BERLIN, priority 2016, dated 2020).
“Also recorded” adds a separate entry of the source. Where two headings read alike, the source gives them in different places. Where a SMILES comes first, the peptide text is derived from it. [ ]: non-standard residue; d: D form. The star is where a group is joined. 5FAM = O=C1OC2(c3ccc(O)cc3Oc3cc(O)ccc32)c2ccc(C(=O)*)cc21; pY = N[C@@H](Cc1ccc(OP(=O)(O)O)cc1)C(=O)O

How the values were obtained:
STAT5b-SH2 domain = target: T1, STAT5b-SH2 domain (Homo sapiens, UniProt P51692); experiment: Competitive fluorescence polarization (FP) assay, STAT5b-SH2 domain; settings: for activity / binding to the STAT5-SH2 domain: in words
T1 sequence (P51692 136-703): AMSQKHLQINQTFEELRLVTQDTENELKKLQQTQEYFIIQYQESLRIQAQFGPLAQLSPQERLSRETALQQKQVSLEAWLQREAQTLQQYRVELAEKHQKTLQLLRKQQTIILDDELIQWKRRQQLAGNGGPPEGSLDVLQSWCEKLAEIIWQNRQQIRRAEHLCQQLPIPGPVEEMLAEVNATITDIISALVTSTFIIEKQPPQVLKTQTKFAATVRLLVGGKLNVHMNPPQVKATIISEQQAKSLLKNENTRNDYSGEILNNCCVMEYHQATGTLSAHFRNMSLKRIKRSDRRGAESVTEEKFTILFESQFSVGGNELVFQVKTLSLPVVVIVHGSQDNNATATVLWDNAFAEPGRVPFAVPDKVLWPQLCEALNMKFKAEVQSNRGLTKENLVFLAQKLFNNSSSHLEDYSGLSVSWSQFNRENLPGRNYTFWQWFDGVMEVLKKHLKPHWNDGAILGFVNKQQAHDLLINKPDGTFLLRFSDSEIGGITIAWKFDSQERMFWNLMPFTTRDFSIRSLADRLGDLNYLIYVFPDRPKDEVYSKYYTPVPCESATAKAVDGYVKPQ
Protocol: The ChemBioNet fragment collection composed in accordance with the substructure composition of the World Drug Index (WDI) was screened both for enhancing and inhibiting fragments of the phosphopeptide-STAT5 interaction.
The clone for Stat5b expression was kindly provided by Thorsten Berg (MPI, Martinsried). Expression of that truncated version of Stat5b (aa 136-703) cloned into a modified pQE70, with N-terminal MBP-tag and C-terminal His-tag was conducted on autoinduction medium (overnight express/Novagen). Cells were grown to an optical density (O.D.) of 0.3 at 37° C., then the temperature was reduced to 20° C. for further 48 h of expression. […] The protein was purified by Ni-chelating chromatography followed by gel filtration (Superdex 200/10 mM HEPES pH 7.8, 100 mM NaCl, 1 mM EDTA, 1 mM DTT, 10% glycerol). A yield of 15 mg MBP-Stat5b-His per liter of culture was obtained and aliquots (200 μl of 3.2 mg/ml) were quick-frozen and stored at −80° C., ready for use.
17000 compounds from the (FMP) ChemBioNet library were tested in a competitive-based fluorescence polarization (FP) assay to investigate the ability of compounds to bind to STAT5b-SH2 domain by displacing respective fluorophore-labeled peptides (5-carboxyfluorescein-GY (PO3H2) LSLPPW-NH2). The peptide purity was >95% and the screening were performed at room temperature. The final concentration of buffer components used was 10 mM HEPES (pH 7.5), 1 mM EDTA, 0.1% Igepal CA-630, 50 mM NaCl, and 5% DMSO. The final concentration of protein used was at 65 nM which correspond to the dissociation constants (Kd) for the individual protein-peptide interactions in assay buffer. The protein was first added to the black 384 well plate (Corning 3676) followed by test compounds and fluorophore-labeled peptide. The plates were centrifuged, and measured using Safire^2 well plate reader (Tecan, Crailsheim, Germany) after 15 minutes incubation at room temperature. […] For the analysis of the data GraphPad Prism 5 was used. Ligand efficiencies (LE) were calculated using equation derived as followed. LE=−ΔG°/HA with (ΔG°) is the standard free energy of binding in KJ and HA is the number of non-hydrogen atoms.

STAT3 = target: T2, STAT3 (Mus musculus, UniProt P42227); experiment: STAT3 phosphorylation and expression in cells; format: cell-based; settings: selectivity in cells
T2 construct: endogenous in cells; context BaF3/FLT3-ITD
Protocol: (§2) Cells were seeded at 0.5×10^6 in 6 well plate and allowed to grow overnight followed by 6 hour incubation with test compounds (0.1% DMSO) before protein extraction with M-PER™ Mammalian Protein Extraction Reagent (Pierce) containing 1% (vol/vol) complete protease inhibitor cocktail (Roche Molecular Biochemicals) and 1% (vol/vol) phosphate inhibitor cocktail (Sigma). For Western blotting, 15 μg of protein from each sample were then separated on a 10% SDS-PAGE and transferred to a PVDF membrane. The blots were blocked with TBST buffer (20 mM Tris-HCl [pH 7.4], 140 mM sodium chloride, and 0.05% Tween 20) containing 5% BSA at room temperature for 1 hour, washed 3 times in TBST buffer, and incubated with primary antibody overnight at 4° C. The membranes were then incubated with HRP-conjugated secondary antibody at room temperature for 1 hour. The reaction products were detected using Syngene Pxi4 imager and quantified by Image J.

[1] = tested on: Pim1 kinase, cyclin D1 and Bcl-xl; experiment: Expression of transcriptional targets of STAT5, Western blot in BaF3/FLT3-ITD cells; format: cell-based, murine; settings: BaF3/FLT-ITD cells, after 6 h
Description: (FIGS. 7A, B). Next, the functional effects of STAT5 inhibitors (6) and (15) on cellular transcription were investigated. For the purpose, the expression of three transcriptional targets of STAT5, namely Pim1 kinase, cyclin D1 and Bcl-xl, which play essential roles in cell cycle progression and survival, was monitored by Western Blotting (FIGS. 6A, B).

BaF3/FLT3-ITD cells = experiment: Cell proliferation assay (Alamar blue); format: cell-based, murine; settings: for inhibition of cell proliferation: 48 h, Alamar blue, FLT3-ITD cells
Protocol: Having proven the functional inhibition of STAT5 as a transcription factor, the effect of STAT5 inhibitors on the proliferation of cancer cells carrying the common FLT3-ITD mutation was investigated. Cells were incubated for 48 h and cell proliferation was quantified by the Alamar blue assay (FIG. 5). […] For comparison, we have tested both compounds on non-STAT5-dependent cell lines and the cytotoxicity effect were negligible up to 500 μM. (FIG. S9).
(§1) The effect of compounds on cell lines was evaluated by In Vitro Toxicology Assay Kit, Resazurin based with indicator dye Alamar Blue (Sigma). Adherent and suspension cells were plated at 5×10^3 per well and 1×10^4 per well respectively in triplicate in 96-well plates and incubated in medium containing 10% FBS. For adherent cell, the complete medium was replaced after 24 hours and incubated with test medium containing vehicle control or serial concentration of compounds for 48 hours at 37° C. The remaining wells in the periphery of the microtiter well plate were added PBS and not used to avoid evaporation effects. Alamar Blue was then added, and all plates were incubated at 37° C., and a colorimetric change was measured according to the methods provided by the provided protocol.

[2] = tested on: non-STAT5-dependent cell lines; experiment: Cytotoxicity on non-STAT5-dependent cell lines; format: cell-based; settings: up to 500 μM
Protocol: Carol Stocking (University Hospital Hamburg-Eppendorf). […] Cells were incubated at 37° C., 5% CO2 atmosphere.
as §1

STAT5 = STAT5 phosphorylation, Western blot in BaF3/FLT3-ITD cells; settings: for reduction of STAT5 phosphorylation / IC50: 6 h; for reduction of STAT5 phosphorylation / tyrosine phosphorylation of STAT5, dose dependence / overall expression of endogenous STAT5: BaF3/FLT3-ITD; for tyrosine phosphorylation of STAT5, dose dependence: 6 h treatment; for IC50: read-out: IC50 of STAT5 phosphorylation inhibition, BaF3/FLT3-ITD cells
Protocol: At first, the ligand-mediated inhibition of STAT5 phosphorylation at conserved tyrosine residues (Tyr694 and Tyr699) was investigated, which is initiated by the binding of the SH2 domain to phosphorylated cell surface receptors. […] After 6 h cells were harvested to determine the level of STAT5 phosphorylation using phosphotyrosine-specific antibodies (FIGS. 4A-B).
as §2

Solubility = format: physicochemical; settings: compared to the 5-aryl-substituted tetrazole

T2 sequence (P42227 whole entry): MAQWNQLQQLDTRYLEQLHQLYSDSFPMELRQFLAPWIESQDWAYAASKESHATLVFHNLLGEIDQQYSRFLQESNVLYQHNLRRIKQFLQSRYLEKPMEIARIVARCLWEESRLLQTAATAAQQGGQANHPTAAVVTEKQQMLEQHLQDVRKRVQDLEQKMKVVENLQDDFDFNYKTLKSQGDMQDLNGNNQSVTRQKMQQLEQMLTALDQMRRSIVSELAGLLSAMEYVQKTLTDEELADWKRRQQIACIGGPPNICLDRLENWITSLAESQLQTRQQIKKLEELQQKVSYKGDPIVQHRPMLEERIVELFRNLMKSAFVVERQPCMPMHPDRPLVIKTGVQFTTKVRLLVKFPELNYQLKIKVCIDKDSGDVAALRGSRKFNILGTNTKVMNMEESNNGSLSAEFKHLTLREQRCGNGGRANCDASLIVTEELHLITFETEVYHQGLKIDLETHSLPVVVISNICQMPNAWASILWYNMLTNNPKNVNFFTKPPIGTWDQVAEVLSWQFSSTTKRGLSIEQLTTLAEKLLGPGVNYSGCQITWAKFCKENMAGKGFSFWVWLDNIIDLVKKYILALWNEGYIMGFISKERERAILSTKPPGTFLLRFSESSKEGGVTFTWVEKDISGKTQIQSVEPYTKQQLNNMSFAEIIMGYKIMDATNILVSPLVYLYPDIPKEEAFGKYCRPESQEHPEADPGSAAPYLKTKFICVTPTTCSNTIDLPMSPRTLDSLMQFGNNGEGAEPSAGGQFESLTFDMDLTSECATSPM

## O=Cc1ccc(OP(=O)(O)O)cc1 [Compound 1, 4-Formylphenyl-dihydrogen-phosphate, reference compound]
STAT5b-SH2 domain
  Ki: > 500 µM

## CC(C)C[C@H](NC(=O)[C@H](Cc1ccc(OP(=O)(O)O)cc1)NC(=O)CNC(=O)c1ccc2c(c1)C(=O)OC21c2ccc(O)cc2Oc2cc(O)ccc21)C(=O)N[C@@H](CO)C(=O)N[C@@H](CC(C)C)C(=O)N1CCC[C@H]1C(=O)N1CCC[C@H]1C(=O)N[C@@H](Cc1c[nH]c2ccccc12)C(N)=O [Compound 2, Fluo-GY*LSLPPW-NH2, reference compound] (5FAM-G[pY]LSLPPW-NH2)
STAT5b-SH2 domain
  Kd: 0.055 µM
  Ki: 0.055 ± 0.006 µM
STAT5b-SH2 domain; Table 1, ligand efficiency
  LE: 0.42 kJ/mol* atom#

## Nc1nonc1C(=O)O [Compound 4, 4-Amino-furazan-3-carboxylic Acid]
STAT5b-SH2 domain; Table 1, ligand efficiency
  LE: 2.14 kJ/mol* atom#
STAT5b-SH2 domain
  activity / binding to the STAT5-SH2 domain: inactive

## c1nnn[nH]1 [Compound 5, 1H-tetrazole, reference compound]
STAT5b-SH2 domain; Table 1, inhibitors of STAT5b, KI converted from IC50
  Ki: > 500 µM
STAT5b-SH2 domain
  activity / binding to the STAT5-SH2 domain: inactive

## COC(=O)c1nonc1NCn1cnnn1 [Compound 6, Methyl 4-((1H-tetrazol-1-yl)-methylamino)-furazan-3-carboxylate]
STAT3
  STAT3 phosphorylation: negligible effects
  endogenous STAT3 expression: negligible effects
[1]
  Pim1, cyclin D1 and Bcl-xL expression: dose dependent reduction
BaF3/FLT3-ITD cells
  inhibition of cell proliferation: clear dose-dependent inhibition
[2]
  cytotoxicity effect: negligible
STAT5; 25 μM
  reduction of STAT5 phosphorylation: clear reduction
STAT5
  tyrosine phosphorylation of STAT5, dose dependence: decrease the tyrosine phosphorylation of STAT5 in a dose dependent manner
  overall expression of endogenous STAT5: no effect
  IC50: 44.2 µM
STAT5b-SH2 domain
  Kd: 76 µM
  Ki: 37.4 ± 1.2 µM
STAT5b-SH2 domain; Table 1, ligand efficiency
  LE: 1.58 kJ/mol* atom#

## CCCCOC(=O)c1nonc1NCn1cnnn1 [Compound 7]
STAT5b-SH2 domain
  Kd: 145 µM
  Ki: 48.2 ± 5 µM
STAT5b-SH2 domain; Table 1, ligand efficiency
  LE: 1.30 kJ/mol* atom#

## COC(=O)c1nsnc1NCn1cnnn1 [Compound 8]
STAT5b-SH2 domain
  Ki: > 500 µM
  activity / binding to the STAT5-SH2 domain: inactive

## O=C(O)c1nonc1NCn1ccnn1 [Compound 9]
STAT5b-SH2 domain
  Ki: 191 ± 24 µM
  activity / binding to the STAT5-SH2 domain: completely inactive
STAT5b-SH2 domain; Table 1, ligand efficiency
  LE: 1.41 kJ/mol* atom#

## O=C(O)c1nonc1NCn1cncn1 [Compound 10]
STAT5b-SH2 domain
  Ki: 47.5 ± 8.5 µM
  activity / binding to the STAT5-SH2 domain: completely inactive
STAT5b-SH2 domain; Table 1, ligand efficiency
  LE: 1.64 kJ/mol* atom#

## O=C(O)c1nonc1NCc1ccccn1 [Compound 11]
STAT5b-SH2 domain
  Ki: > 500 µM
  activity / binding to the STAT5-SH2 domain: completely inactive

## O=C(O)c1nonc1NCn1nnc2ccccc21 [Compound 12]
STAT5b-SH2 domain
  Ki: 188 ± 25 µM
  activity / binding to the STAT5-SH2 domain: completely inactive
STAT5b-SH2 domain; Table 1, ligand efficiency
  LE: 1.12 kJ/mol* atom#

## O=C(O)c1nonc1NCn1cccn1 [Compound 13]
STAT5b-SH2 domain
  Kd: 122 µM
  Ki: 122 ± 7.3 µM
STAT5b-SH2 domain; Table 1, ligand efficiency
  LE: 1.49 kJ/mol* atom#

## COC(=O)c1nonc1NC(=O)Cn1cnnn1 [Compound 14]
STAT5b-SH2 domain
  Ki: > 500 µM
  activity / binding to the STAT5-SH2 domain: abolished the activity

## CC(=O)OC(C)OC(=O)c1nonc1NCn1cnnn1 (stereo not shown) [Compound 15]
STAT3
  STAT3 phosphorylation: negligible effects
  endogenous STAT3 expression: negligible effects
[1]
  Pim1, cyclin D1 and Bcl-xL expression: dose dependent reduction
BaF3/FLT3-ITD cells
  inhibition of cell proliferation: clear dose-dependent inhibition
[2]
  cytotoxicity effect: negligible
STAT5
  tyrosine phosphorylation of STAT5, dose dependence: decrease the tyrosine phosphorylation of STAT5 in a dose dependent manner
  overall expression of endogenous STAT5: no effect
  IC50: 68.9 µM
STAT5b-SH2 domain
  Kd: 14 µM
  Ki: 4.6 ± 1.7 µM
STAT5b-SH2 domain; Table 1, ligand efficiency
  LE: 1.45 kJ/mol* atom#

## COC(=O)c1nonc1NCn1nnnc1-c1ccccc1 [Compound 17]
STAT5b-SH2 domain
  Kd: 37 µM
  Ki: 37.1 ± 6 µM
  LE: 1.15

## COC(=O)c1nonc1NCn1nnnc1-c1ccc(C(F)(F)F)cc1 [Compound 18]
STAT5b-SH2 domain
  Ki: 94.9 ± 2.1 µM
  LE: 0.88

## O=C(O)c1nonc1NCn1nnnc1-c1cccc(OCc2ccccc2)c1 [Compound 19]
STAT5b-SH2 domain
  Ki: 1.2 ± 0.5 µM
  LE: 1.16

## COC(=O)c1nonc1NCn1nnnc1-c1cccc(C(F)(F)F)c1 [Compound 20]
STAT5b-SH2 domain
  Ki: 9.5 ± 1.8 µM
  LE: 1.10

## O=C(O)c1nonc1NCn1nnnc1-c1cccc(C(F)(F)F)c1 [Compound 21]
STAT5b-SH2 domain
  Kd: 0.86 µM
  Ki: 0.86 ± 0.05 µM
  LE: 1.38

## COC(=O)c1nonc1NCn1nnnc1-c1cccc([N+](=O)[O-])c1 [Compound 22]
STAT5b-SH2 domain
  Ki: > 500 µM

## COC(=O)c1nonc1NCn1nnnc1-c1cccc(NS(C)(=O)=O)c1 [Compound 23]
STAT5b-SH2 domain
  Ki: 18.3 ± 2.4 µM
  LE: 1.00

## COC(=O)c1nonc1NCn1nnnc1-c1cccc(O)c1 [Compound 24]
STAT5b-SH2 domain
  Ki: 22.3 ± 3 µM
  LE: 1.21

## COC(=O)c1nonc1NCn1nnnc1-c1cccc(OC(F)(F)F)c1 [Compound 25]
STAT5b-SH2 domain
  Ki: 16.7 ± 4.3 µM
  LE: 1.01

## O=C(O)c1nonc1NCn1nnnc1-c1cccc(OC(F)(F)F)c1 [Compound 26]
STAT5b-SH2 domain
  Ki: 3 ± 0.7 µM
  LE: 1.21

## O=C(O)c1nonc1NCn1nnnc1-c1cccc(F)c1 [Compound 27]
STAT5b-SH2 domain
  Kd: 0.62 µM
  Ki: 0.62 ± 0.09 µM
  LE: 1.61

## O=C(O)c1nonc1NCn1nnnc1-c1ccc(F)cc1 [Compound 28]
STAT5b-SH2 domain
  LE: 1.42

## O=C(O)c1nonc1NCn1nnnc1-c1ccc(-c2ccccc2)cc1 [Compound 29]
STAT5b-SH2 domain
  Kd: 0.8 µM
  Ki: 0.8 ± 0.2 µM
  LE: 1.30

## O=C(O)c1nonc1NCn1nnnc1Cc1ccccc1 [Compound 30, 4-((5-Benzyl-1H-tetrazol-1-yl)-methylamino)-furazan-3-carboxylic Acid]
Solubility
  solubility: strongly improved solubility
STAT5; 50 μM
  reduction of STAT5 phosphorylation: clear reduction; also recorded: reduces STAT5 phosphorylation significantly
STAT5
  IC50: 30.8 µM
STAT5b-SH2 domain
  Ki: 8.6 ± 2 µM
  LE: 1.31

## O=C(O)c1nonc1NCn1nnnc1Cc1ccc(F)cc1 [Compound 31]
STAT5b-SH2 domain
  Ki: 7.2 ± 1.9 µM
  LE: 1.28

## O=C(O)c1nonc1NCn1nnnc1COc1ccccc1 [Compound 100]
BaF3/FLT3-ITD cells
  cellular activity (cell proliferation curves, FIG. 8): significant cellular activity

## O=C(O)c1nonc1NCn1nnnc1CCOc1ccccc1 [Compound 104]
BaF3/FLT3-ITD cells
  cellular activity (cell proliferation curves, FIG. 8): significant cellular activity

## O=C(O)c1nonc1NCn1nnnc1COCc1ccccc1 [Compound 108]
BaF3/FLT3-ITD cells
  cellular activity (cell proliferation curves, FIG. 8): significant cellular activity

## O=C(O)c1nonc1NCn1nnnc1COCCc1ccccc1 [Compound 113]
BaF3/FLT3-ITD cells
  cellular activity (cell proliferation curves, FIG. 8): significant cellular activity

## O=C(O)c1nonc1NCn1nnnc1CCc1ccccc1 [Compound 169]
BaF3/FLT3-ITD cells
  cellular activity (cell proliferation curves, FIG. 8): significant cellular activity

## O=C(O)c1nonc1NCn1nnnc1Cc1cccc(Cl)c1 [Compound 173]
BaF3/FLT3-ITD cells
  cellular activity (cell proliferation curves, FIG. 8): significant cellular activity

## Cc1ccc(Cc2nnnn2CNc2nonc2C(=O)O)cc1 [Compound 174]
BaF3/FLT3-ITD cells
  cellular activity (cell proliferation curves, FIG. 8): significant cellular activity

## COc1ccc(Cc2nnnn2CNc2nonc2C(=O)O)cc1 [Compound 177]
BaF3/FLT3-ITD cells
  cellular activity (cell proliferation curves, FIG. 8): significant cellular activity

## O=C(O)c1nonc1NCn1nnnc1Cc1cccc(F)c1 [Compound 178]
BaF3/FLT3-ITD cells
  cellular activity (cell proliferation curves, FIG. 8): significant cellular activity

## O=C(O)c1nonc1NCn1nnnc1CCCc1ccccc1 [Compound 196]
BaF3/FLT3-ITD cells
  cellular activity (cell proliferation curves, FIG. 8): significant cellular activity
